{"source": "patent US20150198584A1", "about": "“IDENTIFICATION OF […] STATES” ([…] AG, priority 2014, published 2015)", "key": {"[1]": {"test_system": "human peripheral blood monocytes", "assay": "Kinetics of signal transduction responses to LPS in whole blood monocytes, flow cytometry of fixed and permeabilized cells", "type": "cell-based", "conditions": "LPS in the presence of the inhibitor, compared to LPS alone"}, "HL-60 cell line": {"test_system": "HL-60 cell line", "assay": "Cell physiology assay plate 1a (MBBR, CALCEIN AM, MITOSOX RED, SYTOXRED, light scatter) by flow cytometry", "type": "cell-based, human", "procedure": "(§1) Cells were deposited into 384 well plates (1×10^6 cells in 40 μl tissue culture media) and serial dilutions of test compounds (or vehicle in the case of controls) were deposited in individual wells using standard robotic techniques. Compound deposition and dilution was performed by BIOMEK FX (5 or 10 step dilutions from 100 to 0.005 μM). Dilutions were prepared from stock solutions of compounds dissolved initially in 100% DMSO. Final volume deposited into each well is 2 μl of each compound dilution (compounds are in a final concentration of 1% DMSO). After incubation in a tissue culture incubator (5% CO2 at 37° C.) for varying periods of time (typically 4 hours), plates were centrifuged at room temperature, followed by removal of 20 μl supernatant fluid, After vibration of the plate to re-suspend cells, a dye mix (Plate in Monobromobimane, CALCEIN AM, MITOSOX™ and SYTOSOX™ RED; plate 1b VYBRANVIOLET™ Live Cell Cycle dye, JC-9, and SYTOSOX™ RED) was added in a total volume of 20 μl, followed by an additional mixing step.\n(§2) Data was acquired using a CYAN™ flow cytometer, with the […]™ software used to compile files for each well on an individual plate using an FCS format. Data for each plate was subsequently analyzed for several quality assurance parameters (total number of events per well, numbers of events associated with morphologically normal events, number of dead cells), as described below.\nFlow cytometric analyses of intrinsic cell properties (forward light scatter and light scattered orthogonal to the laser beam) and fluorescence signals derived from the dyes listed in Table 1 was carried out for plates 1a and 1b.\nMITOSOX™ RED is a compound that can diffuse into viable cells and reacts with superoxide anion species, particularly products of mitochondrial respiration; conditions such as cell stress can cause mitochondria to respond (sometimes rapidly) by increasing respiration and/or release superoxide anions; and\n(3) SYTOXRED™ to measure cell viability (loss of nuclear membrane integrity). SYTOXRED™ is a high-affinity DNA stain that can only pass through the cytoplasmic and nuclear membranes of cells which have lost the integrity of both membranes; thus, brightly fluorescent cells are dead."}, "HL-60 cells": {"test_system": "HL-60 cells", "assay": "Mitochondrial membrane potential (MMP) with JC-9, red and green fluorescence, flow cytometry", "type": "cell-based, human", "procedure": "as §1, with “step. Plates were returned to the tissue culture incubator (5% CO2 at 37° C.) for an additional 15 min (plate 1a) or 30 min (plate 1b), followed by immediate analysis using the […]-CYAN™.” for “step.”\nas §2, with “Each well of the 384 wellplate was sampled with a 6 second sip time, plus 1 second delay between wells, resulting in a total read time for each plate of approximately 45 minutes. Data was” for “Data was”\nMeasurements identical to those described in Example 2 above were made using a second combination of dyes:\n(2) JC-9 to measure mitochondrial membrane potential (MMP); and\nThe measurement of mitochondrial membrane potential (MMP) with JC-9 was performed with two independent fluorescence channels (green and red fluorescence signals), as changes in MMP cause aggregation of the dye, with different fluorescence emission by the aggregated versus non-aggregated dye molecules. […] At higher valinomycin concentrations, red fluorescence […]. A unique aspect of this assay is that it correlates changes in MMP (JC-9) and cell death (SYTOXRED™) with the phases of the cell cycle (G1, S, and G2M)."}, "K562 cells": {"test_system": "K562 cells", "assay": "Cell cycle measured by DNA content in K562 cells", "type": "cell-based, human", "conditions": "30 min exposure, listed as imatinib", "procedure": "Cells were deposited onto dilutions of test compounds deposited into individual wells of 96 well plates, as indicated above. […] Following 15 min incubation (at 37° C.?), cells were pelleted by centrifugation, supernatant removed, and the cells were suspended by vibrating the plate.\nCell were permeabilized by adding 150 μl cold absolute methanol, followed by incubation at 4° C. for 15 minutes. Permeabilized cells were centrifuged, supernatant removed, and cells were washed three times with cold (4° C.) PBS containing 4% FBS. Following the final wash, cells were centrifuged, the supernatant was removed, and cells were re-suspended in an antibody cocktail (total volume 20 μl) appropriate for that experiment."}, "[2]": {"conditions": "33 μM, population with altered morphology, compared to cells with normal morphology"}, "[3]": {"conditions": "33 μM, population with normal morphology"}, "[4]": {"conditions": "HL-60 cells, increasing concentration"}, "[5]": {"conditions": "HL-60 cells, concentration series"}}, "note": "“Also recorded” adds a separate entry of the source."}
{"smiles": "CS(=O)(=O)N1CCN(Cc2cc3nc(-c4cccc5[nH]ncc45)nc(N4CCOCC4)c3s2)CC1", "note": "[GDC0941]", "values": [{"measurement": "kinetics of ERK phosphorylation", "setting": "[1]", "result": "delayed"}]}
{"smiles": "N#CC(C#N)=NNc1ccc(OC(F)(F)F)cc1", "note": "[FCCP, carbonyl cyanide-4-(trifluoromethoxy)phenylhydrazone]", "values": [{"measurement": "CALCEIN", "setting": "HL-60 cell line; [2]", "result": "increased"}, {"measurement": "GSH", "setting": "HL-60 cell line; [2]", "result": "reduced"}, {"measurement": "ROS", "setting": "HL-60 cell line; [2]", "result": "increased"}, {"measurement": "SYTOXRED", "setting": "HL-60 cell line; [2]", "result": "higher"}, {"measurement": "CALCEIN AM level", "setting": "HL-60 cell line; [3]", "result": "normal"}, {"measurement": "GSH level", "setting": "HL-60 cell line; [3]", "result": "normal"}, {"measurement": "ROS (indicator of mitochondrial stress)", "setting": "HL-60 cell line; [3]", "result": "increased"}, {"measurement": "nuclear and cytoplasmic membranes (SYTOX Red uptake)", "setting": "HL-60 cell line; [3]", "result": "intact"}, {"measurement": "cell morphology", "setting": "HL-60 cell line; 33 μM, second distinct population (light blue)", "result": "altered"}]}
{"smiles": "CO/C(=C/C(N)=O)[C@H](C)[C@H](/C=C/c1csc(-c2csc([C@@H](C)/C=C/C=C/C(C)C)n2)n1)OC", "note": "[myxothiazol]", "values": [{"measurement": "CALCEIN AM (cytoplasmic membrane permeability)", "setting": "HL-60 cell line; 100 μM, affected cells", "result": "decrease"}, {"measurement": "GSH (MBBR)", "setting": "HL-60 cell line; 100 μM, affected cells", "result": "decrease"}, {"measurement": "ROS (MITOSOX RED)", "setting": "HL-60 cell line; 100 μM, affected cells", "result": "increase"}, {"measurement": "SYTOXRED (cytoplasmic and nuclear membrane permeability, viability)", "setting": "HL-60 cell line; 100 μM, affected cells", "result": "increase"}, {"measurement": "cell morphology (light scatter)", "setting": "HL-60 cell line; 100 μM, affected cells", "result": "significant change"}, {"measurement": "SYTOXRED (cytoplasmic and nuclear membrane permeability, viability)", "setting": "HL-60 cell line; 100 μM, affected cells, listed as myxothiozol", "result": "perturbs"}]}
{"smiles": "CNCCC(Oc1ccc(C(F)(F)F)cc1)c1ccccc1", "note": "(stereo not shown) [fluoxetine]", "values": [{"measurement": "cells that have lost \"normal morphology\"", "setting": "HL-60 cell line; 100 μM", "result": "Approximately 30%"}, {"measurement": "GSH (MBBR)", "setting": "HL-60 cell line; 100 μM, affected cells", "result": "reduced"}, {"measurement": "ROS (MITOSOX RED)", "setting": "HL-60 cell line; 100 μM, affected cells", "result": "increased"}]}
{"smiles": "CC(=O)[C@]1(O)Cc2c(O)c3c(c(O)c2[C@@H](O[C@H]2C[C@H](N)[C@H](O)[C@H](C)O2)C1)C(=O)c1ccccc1C3=O", "note": "[idarubicin]", "values": [{"measurement": "JC-9 red fluorescence versus untreated control cells", "setting": "HL-60 cells; HL60 cells, 1.23 μM", "result": "significantly higher"}, {"measurement": "concentration at which red fluorescence of JC-9 begins to increase significantly", "setting": "HL-60 cells; HL60 cells, concentration series", "result": 1.23, "unit": "µM"}, {"measurement": "JC-9 green fluorescence", "setting": "HL-60 cells; [4]", "result": "does not increase"}]}
{"smiles": "CC(C)[C@@H]1NC(=O)[C@H](C)OC(=O)[C@@H](C(C)C)NC(=O)[C@@H](C(C)C)OC(=O)[C@H](C(C)C)NC(=O)[C@H](C)OC(=O)[C@@H](C(C)C)NC(=O)[C@@H](C(C)C)OC(=O)[C@H](C(C)C)NC(=O)[C@H](C)OC(=O)[C@@H](C(C)C)NC(=O)[C@@H](C(C)C)OC1=O", "note": "[valinomycin]", "values": [{"measurement": "concentration at which red and green JC-9 fluorescence peak", "setting": "HL-60 cells; [5]", "result": "~0.045", "unit": "µM"}, {"measurement": "concentration of peak green JC-9 fluorescence", "setting": "HL-60 cells; [5]", "result": "~0.05", "unit": "µM"}, {"measurement": "JC-9 green fluorescence", "setting": "HL-60 cells; [4]", "result": "significantly higher; also recorded: initially increase"}, {"measurement": "JC-9 red fluorescence", "setting": "HL-60 cells; [4]", "result": "significantly higher; also recorded: initially increase"}, {"measurement": "JC-9 red/green fluorescence ratio", "setting": "HL-60 cells; at higher concentrations (above green peak)", "result": "increasing"}]}
{"smiles": "Cc1ccc(NC(=O)c2ccc(CN3CCN(C)CC3)cc2)cc1Nc1nccc(-c2cccnc2)n1", "note": "[GLEEVEC™]", "values": [{"measurement": "change in the cell cycle, as measured by DNA content", "setting": "K562 cells", "result": "no concomitant change"}]}
